The values that follow come from patent publication US9822099B2, “Triazole derivatives” (priority 2013, dated 2017).

Marks after values point to notes of the source that are not given here.

In one data set the test system is Leptosphaeria nodorum. As to the kind of experiment: Example K: Leptosphaeria nodorum test (wheat)/preventive. To be noted: 500 ppm of active ingredient, preventive, evaluated 8 days after inoculation. Type of data set: in vivo. The essentials:
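Young wheat plants sprayed preventively with compound in N,N-dimethylacetamide/alkylaryl polyglycol ether emulsifier diluted with water at the stated application rate. Once the coating dried, plants were inoculated with a Leptosphaeria nodorum spore suspension.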

The test system of another data set is Uromyces appendiculatus. As to the kind of experiment: Example F: in vivo preventive test on Uromyces appendiculatus (bean rust). The following applies: 500 ppm of active ingredient; bean plants, preventive spray; evaluated 11 days after inoculation. The procedure: The young plants of bean are treated by spraying the active ingredient prepared as described above. Control plants are treated only with an aqueous solution of acetone/Dimethyl sulfoxide/Tween®. After 24 hours, the plants are contaminated by spraying the leaves with an aqueous suspension of Uromyces appendiculatus spores.

The next data set concerns Fusarium graminearum. The class given is in vivo. To be noted: 500 ppm of active ingredient; barley, preventive; evaluated 5 days after inoculation.
Data set [1] has as its system Fusarium nivale (var. majus). Briefly: Example J: Fusarium nivale (var. majus)-test (wheat)/preventive. Type of data set: in vivo. To be noted: 500 ppm of active ingredient, preventive, evaluated 5 days after inoculation. The essentials: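 Young wheat plants sprayed preventively with active compound (DMA/emulsifier concentrate diluted in water) at the stated rate, then sandblast-wounded and inoculated with conidia. Held in greenhouse at ~10 °C, ~100% RH. Efficacy scored 5 days post-inoculation: 0% = untreated control, 100% = no disease.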

The test system of a further data set is Puccinia recondita. As to the kind of experiment: Example B: in vivo preventive test on Puccinia recondita (brown rust on wheat). To be noted: 500 ppm of active ingredient; wheat plants, preventive spray; evaluated 11 days after inoculation. How it is done: The young plants of wheat are treated by spraying the active ingredient prepared as described above. Control plants are treated only with an aqueous solution of acetone/Dimethyl sulfoxide/Tween®. After 24 hours, the plants are contaminated by spraying the leaves with an aqueous suspension of Puccinia recondita spores.

The conditions of data set [2]: pH 2.7.
The test system of another data set is Phakopsora pachyrhizi. As to the kind of experiment: Example L: Phakopsora test (soybeans)/preventive. Type of data set: in vivo. The following applies: 100 ppm of active ingredient, preventive, evaluated 7 days after inoculation.
A further data set has as its system Botrytis cinerea. Briefly: Example A: in vivo preventive test on Botrytis cinerea (grey mould). To be noted: 500 ppm of active ingredient; gherkin plants, preventive spray; evaluated 4 to 5 days after inoculation. The procedure: The young plants of gherkin are treated by spraying the active ingredient prepared as described above. Control plants are treated only with an aqueous solution of acetone/Dimethyl sulfoxide/Tween®. After 24 hours, the plants are contaminated by spraying the leaves with an aqueous suspension of Botrytis cinerea spores.

In another data set the test system is Septoria tritici. As to the kind of experiment: Example D: in vivo preventive test on Septoria tritici (leaf spot on wheat). To be noted: 500 ppm of active ingredient; wheat plants, preventive spray; evaluated 24 days after inoculation. How it is done: The young plants of wheat are treated by spraying the active ingredient prepared as described above. Control plants are treated only with an aqueous solution of acetone/Dimethyl sulfoxide/Tween®. After 24 hours, the plants are contaminated by spraying the leaves with an aqueous suspension of Septoria tritici spores.

The next data set relates to Fusarium culmorum. Briefly: Example H: Fusarium culmorum-test (wheat)/curative. Type of data set: in vivo. To be noted: 500 ppm of active ingredient, curative, evaluated 5 days after inoculation. The essentials:
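Curative wheat test: sandblast-wounded young plants inoculated with F. culmorum conidia, held 24 h at ~22 °C and ~100% RH, then sprayed with compound (DMA/emulsifier formulation diluted in water) at the stated rate. Kept under cloches at same conditions; efficacy scored 5 days post-inoculation (0% = untreated, 100% = no disease).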

Data set [3] relates to Blumeria graminis f. sp. hordei. As to the kind of experiment: Example G: Blumeria test (barley)/preventive. The following applies: 500 ppm of active ingredient, preventive, evaluated 7 days after inoculation. The class given is in vivo. The essentials:
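Active compound formulated in N,N-dimethylacetamide with alkylaryl polyglycol ether emulsifier, diluted in water, and sprayed onto young barley plants at the stated application rate. Once the coating dried, plants were dusted with Blumeria graminis f. sp. hordei spores as a preventive test.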

In the next data set the test system is Pyrenophora teres. As to the kind of experiment: Example C: in vivo preventive test on Pyrenophora teres (net blotch on barley). The following applies: 500 ppm of active ingredient; barley plants, preventive spray; evaluated 14 days after inoculation. How it is done: The young plants of barley are treated by spraying the active ingredient prepared as described above. Control plants are treated only with an aqueous solution of acetone/Dimethyl sulfoxide/Tween®. After 24 hours, the plants are contaminated by spraying the leaves with an aqueous suspension of Pyrenophora teres spores.

The test system of a further data set is Sphaerotheca fuliginea. As to the kind of experiment: Example E: in vivo preventive test on Sphaerotheca fuliginea (powdery mildew on cucurbits). To be noted: gherkin plants, preventive spray, evaluated 15 days after inoculation. How it is done:
The young plants of gherkin are treated by spraying the active ingredient prepared as described above. Control plants are treated only with an aqueous solution of acetone/Dimethyl sulfoxide/Tween®. After 24 hours, the plants are contaminated by spraying the leaves with an aqueous suspension of Sphaerotheca fuliginea spores.

In another data set the test system is Podosphaera leucotricha. Briefly: Example M: Podosphaera test (apples)/preventive. Type of data set: in vivo. To be noted: 100 ppm of active ingredient, preventive, evaluated 10 days after inoculation. How it is done: Solvent: 24.5 parts by weight of acetone • 24.5 parts by weight of dimethylacetamide Emulsifier: 1 part by weight of alkylaryl polyglycol ether To produce a suitable preparation of active compound, 1 part by weight of active compound is mixed with the stated amounts of solvent and emulsifier, and the concentrate is diluted with water to the desired concentration. To test for preventive activity, young plants are sprayed with the preparation of active compound at the stated rate of application. After the spray coating has dried on, the plants are inoculated with an aqueous spore suspension of the causal agent of apple mildew (Podosphaera leucotricha).

The subject of the next data set is Pyricularia oryzae. Type of data set: in vivo. The following applies: 500 ppm of active ingredient; rice, preventive; evaluated 8 days after inoculation.
The next data set concerns Venturia inaequalis. Briefly: Example O: Venturia test (apples)/preventive. The class given is in vivo. To be noted: 100 ppm of active ingredient, preventive, evaluated 10 days after inoculation. The procedure:
Solvent: 24.5 parts by weight of acetone • 24.5 parts by weight of dimethylacetamide Emulsifier: 1 part by weight of alkylaryl polyglycol ether To produce a suitable preparation of active compound, 1 part by weight of active compound is mixed with the stated amounts of solvent and emulsifier, and the concentrate is diluted with water to the desired concentration. To test for preventive activity, young plants are sprayed with the preparation of active compound at the stated rate of application.

`OC(Cc1cccnc1Cl)(Cn1cncn1)C1(Cl)CC1` (stereo not drawn) [Example I-3]: the Eff. % in the data set on Leptosphaeria nodorum is given as 100%; with Uromyces appendiculatus, 100%; in the data set with Fusarium graminearum, 100%; in [1], 100%; in the data set with Puccinia recondita, 98%; with Phakopsora pachyrhizi it was 100%. Moreover, the Eff. % (in the data set with Botrytis cinerea; in the data set on Septoria tritici; with Fusarium culmorum; in [3]; in the data set with Pyrenophora teres; with Sphaerotheca fuliginea (100 ppm of active ingredient)) was 100% throughout. Further, the Eff. % with Podosphaera leucotricha came to 100%; in the data set with Pyricularia oryzae it was 100%; with Venturia inaequalis, 98%. Further, the LogP in data set [2] was 1.78^[a].
`OC(Cc1ccncc1Cl)(Cn1cncn1)C1(Cl)CC1` (stereo not drawn) [Example I-5, 2-(1-chlorocyclopropyl)-1-(3-chloropyridin-4-yl)-3-(1H-1,2,4-triazol-1-yl)propan-2-ol]: the Eff. % is recorded as 90% in the data set on Leptosphaeria nodorum; 98% in the data set with Uromyces appendiculatus; 100% in the data set with Fusarium graminearum; 100% in data set [1]; 100% in the data set on Puccinia recondita; 100% with Phakopsora pachyrhizi. The Eff. % (in the data set with Botrytis cinerea; in the data set on Septoria tritici; with Fusarium culmorum; in data set [3]; with Sphaerotheca fuliginea (500 ppm of active ingredient); with Podosphaera leucotricha) was 100% in each case. Moreover, the Eff. % is 75% with Pyricularia oryzae and 100% in the data set on Venturia inaequalis.
